Results from patent US8119619B2, “Pregnane steroids and their use in the treatment of CNS disorders” (Umecrine AB, priority 2001, dated 2012).
Several values for one entry are separate records, joined by “and”; a condition that tells them apart may be missing. Identical values can stand only once. Entries after “also recorded” stand apart in the source; their conditions may differ.

Legend:
[1] = test system: GABA-A receptor; assay: Cortical tissue homogenate study: radioactive chloride uptake into vesicles through the GABA-A receptor; format: biochemical, rat; conditions: for Mean % (SEM) chloride uptake relative to only 10 uM GABA: 10 μM GABA alone = 100%, 3alpha-hydroxy-5alpha-pregnan-20-one 0-3000 nM + 10 μM GABA + 30 μM interacting steroid, reference steroid tested without blocker; for Within group change from 0 nM 3alpha-hydroxy-5alpha-pregnan-20-one: doses of 3alpha-hydroxy-5alpha-pregnan-20-one: 1=0, 2=50, 3=100, 4=150, 5=200, 6=1000, 7=3000 nM, + 10 μM GABA + 30 μM steroid
Description: In these studies cortical tissue from mature male rats was homogenized in buffer. As a result of this procedure a suspension of small vesicles was formed, said vesicles having GABA-A receptors on their surface. When radioactive chloride is added to this suspension, a certain amount will enter the vesicles. This amount is related to how much open the GABA-A receptor is. Drugs that open the receptor will increase the amount of chloride in the vesicles in relation to the dosage of the drug. Similarly, drugs that close the GABA-A receptor will decrease the amount of chloride moving into the vesicles. The labeled chloride outside of the vesicles was washed away and separated from the chloride inside. The amount of radioactively labeled chloride inside the vesicles was thereafter measured in a fluid scintillator and a curve drawn.
At each experiment, a control of increasing dosages of GABA was used to ensure that the tissue sample is working properly. A second control was used to enhance the effect of 10 μM of GABA by adding increasing dosages 3alpha-hydroxy-5alpha-pregnan-20-one.
The effect is shown as a percentage change from the uptake with only 10 μM GABA and no 3 alpha-hydroxy-5alpha-pregnan-20-one in this case given the measure 100%.
In all cases 3alpha-hydroxy-5alpha-pregnan-20-one is given in increasing dosages 1=0, 2=50, 3=100, 4=150, 5=200, 6=1000, 7=3000 nM+10 μM GABA+30 μM of interacting Steroid. H=high, S=significant, NS=non significant. Statistical testing made with repeated measures ANOVA followed post hoc with lest significant difference test.

[2] = test system: rats; assay: Morris water maze learning model; format: in vivo, rat; conditions: for Learning to find the hidden platform (latency), substance given alone: i.v. daily for 6 days, four trials per day, UC1011 20 mg/kg or 3alpha-hydroxy-5alpha-pregnan-20-one 2 mg/kg, UC1011 vs 3alpha group p<0.05 day 3-6
Excerpt: Animal studies using the Morris water-maze model have been performed. In the Morris water-maze model, the learning capacity of the test animals can be observed. The test animal, usually a rat, is placed in a container with water, having a platform at one location. This platform is slightly under the surface of the water, and the rat must swim until it finds the platform. In following test sessions the rat will learn were the platform is by looking at markings on the wall of the room. It is known, that the learning process is negatively influenced by the administration of CNS depressing 3alpha-hydroxy-pregnan-steroids. (Johansson L M, Birzniece V, Lindblad C., Olsson T. and Bäckström T (2002) Allopregnanolone inhibits learning in the Morris water maze. Brain Res 934, 125-131).
The results (FIG. 3) indicate, that this negative effect is removed or alleviated through the administration of a compound according to the present invention. The experiments were conducted using 3alpha-hydroxy-pregnan-20-one as learning disturbing substance (CAS no. 516-54-1, Table 1) and 3beta,20beta-dihydroxy-5alpha-pregnane, UC1011, (CAS 516-53-9, Table 2 and 3) as blocking substance. Rats (n=46) where injected (i.v) daily with 3beta,20beta-dihydroxy-5alpha-pregnane, UC1011 20 mg/kg (n=14), 3alpha-hydroxy-5alpha-pregnan-20-one 2 mg/kg (n=14), 3alpha-hydroxy-5alpha-pregnan-20-one+3beta,20beta-dihydroxy-5alpha-pregnane, UC1011 2:20 mg/kg (n=14), or vehicle (n=4) Animals were given four swim trials daily with maximal swimming time 120 second for each trial. The rats started to swim 8 minute after the 3alpha-hydroxy-5alpha-pregnan-20-one injection for 6 days. The performance of rats was monitored with a video camera and data was analyzed with analysis of variance (ANOVA) followed by post hoc test.

Molecule: 3beta-hydroxy-5alpha-pregnan-20-one-sulfate, sodium salt [UC1016]
- Mean % (SEM) chloride uptake relative to only 10 uM GABA [1]: 109.8(19) %
- Within group change from 0 nM 3alpha-hydroxy-5alpha-pregnan-20-one [1]: All dosages = NS

Molecule: CC(=O)[C@H]1CC[C@H]2[C@@H]3CC[C@H]4C[C@H](O)CC[C@]4(C)[C@H]3CC[C@]12C [3alpha-hydroxy-5alpha-pregnan-20-one, reference compound]
- Mean % (SEM) chloride uptake relative to only 10 uM GABA [1]: 167.7% and 167.7(13) %
- Within group change from 0 nM 3alpha-hydroxy-5alpha-pregnan-20-one [1]: Dose 3, 5, 6, 7 = S
- Latency to find the platform ([2]; 2 mg/kg i.v. daily, after 6 days with practice, max swimming time 120 second): above 80 seconds
- Learning to find the hidden platform (latency), substance given alone [2]: inhibits spatial learning
- Learning to find the hidden platform (latency), substance given alone ([2]; listed as 3alpha-hydroxy-5alpha-preganane-20-one): do not learn significantly within six days

Molecule: CC(=O)[C@H]1CC[C@H]2[C@@H]3CC=C4C[C@@H](OS(=O)(=O)[O-])CC[C@]4(C)[C@H]3CC[C@]12C.[Na+] [UC1018, 3beta-hydroxy-delta5-pregnen-20-one-sulfate, sodium salt]
- Mean % (SEM) chloride uptake relative to only 10 uM GABA [1]: 64.7(23) %
- Within group change from 0 nM 3alpha-hydroxy-5alpha-pregnan-20-one [1]: All dosages = NS

Molecule: C[C@H](O)[C@H]1CC[C@H]2[C@@H]3CC[C@@H]4C[C@@H](O)CC[C@]4(C)[C@H]3CC[C@]12C [UC1013, 3beta,20alpha-dihydroxy-5beta-pregnane]
- Mean % (SEM) chloride uptake relative to only 10 uM GABA [1]: 84.2(22) %
- Within group change from 0 nM 3alpha-hydroxy-5alpha-pregnan-20-one [1]: All dosages = NS

Molecule: CC(=O)[C@H]1CC[C@H]2[C@@H]3CC[C@@H]4C[C@@H](O)CC[C@]4(C)[C@H]3CC[C@]12C [UC1014, 3beta-hydroxy-5beta-pregnan 20-one]
- Mean % (SEM) chloride uptake relative to only 10 uM GABA [1]: 92.9(22) %
- Within group change from 0 nM 3alpha-hydroxy-5alpha-pregnan-20-one [1]: All dosages NS

Molecule: CC(=O)[C@H]1CC[C@H]2[C@@H]3CC[C@H]4C[C@@H](O)CC[C@]4(C)[C@H]3CC[C@]12C [UC1010, 3beta-hydroxy-5alpha-pregnan-20-one]
- Mean % (SEM) chloride uptake relative to only 10 uM GABA [1]: 104.4(13) %
- Within group change from 0 nM 3alpha-hydroxy-5alpha-pregnan-20-one [1]: Dos 7 = S H; also recorded: The rest = NS

Molecule: C[C@]12CC[C@H](O)C[C@H]1CC[C@@H]1[C@@H]2CC[C@]2(C)[C@@H](C(=O)CO)CC[C@@H]12 [UC1015, 3beta,21-dihydroxy-5beta-pregnan-20-one]
- Mean % (SEM) chloride uptake relative to only 10 uM GABA [1]: 102.7(22) %
- Within group change from 0 nM 3alpha-hydroxy-5alpha-pregnan-20-one [1]: All dosages = NS

Molecule: CC(=O)[C@H]1CC[C@H]2[C@@H]3CC[C@H]4C[C@@H](O)CC[C@]4(C)[C@H]3C(=O)C[C@]12C [UC1017, 3beta hydroxy-5alpha-pregnan-11,20-dione]
- Within group change from 0 nM 3alpha-hydroxy-5alpha-pregnan-20-one [1]: All dosages = NS

Molecule: CC(O)C1CCC2C3CCC4CC(O)CCC4(C)C3CCC12C (stereo not drawn) [UC1011, 3beta,20beta-dihydroxy-5alpha-pregnane]
- Mean % (SEM) chloride uptake relative to only 10 uM GABA [1]: 81.9(19) %
- Effect on the increase in chloride uptake induced by 3alpha-hydroxy-5alpha-pregnan-20-one (FIG. 2) ([1]; 30 μM blocker, 10 μM GABA, increasing 3alpha-hydroxy-5alpha-pregnan-20-one): blocked
- Within group change from 0 nM 3alpha-hydroxy-5alpha-pregnan-20-one [1]: All dosages = NS
- Learning to find the hidden platform (latency), blocker given with 3alpha-hydroxy-5alpha-pregnan-20-one ([2]; 3alpha-hydroxy-5alpha-pregnan-20-one + UC1011 2:20 mg/kg i.v. daily for 6 days, compared with the 3alpha-hydroxy-5alpha-pregnan-20-one group, p<0.05 day 4-6, 20 mg/kg): lower latency time; also recorded: start to learn significantly on the 4th day of training
- Learning to find the hidden platform (latency), substance given alone [2]: learned to find the platform as quickly as the control group; also recorded: learn to find the platform on the tired day of training
